Laboratory results from patent publication US8771682B2, “Methods and compositions for reducing interleukin-4 or interleukin-13 signaling” (Technische Universtität Dresden, priority 2011, dated 2014).
“Also recorded” adds a separate entry of the source.

How the values were obtained:
Format in all cases: cell-based, human
[1] = tested on: type II IL-4 signaling (IL-4/IL-13, Stat6 phosphorylation); assay: Stat6 phosphorylation by quantitative immunoblotting in Stat6-transfected HEK293T cells stimulated with IL-4 or IL-13 (type II signaling); settings: IL-4 3 ng/ml or IL-13 10 ng/ml, Dynasore 320 μmol/l, EHT-1864 50 μmol/l, IPA-3 10 μmol/l, FIG. 9
Description: It was verified by RT-PCR that HEK293T (human epithelial cell line—ATCC number CRL-11268) cells expressed the endogenous type II IL-4 pathway components IL4-Ra, IL-13Ra1, Jak1, while Stat6 and the type I specific components IL-2Rg, and Jak3 were absent (FIG. 4 and FIG. 5). In HEK cells ectopically expressing human Stat6 under the cytomegalovirus promoter (pcDNA3.1-GS-Stat6, Gene Storm, Invitrogen) and stimulated with either IL-4 or IL-13, phosphorylated Stat6 became detectable by immunoblotting (FIG. 6). Co-transfected RNAi (Sigma Aldrich, #EHU-029151) mediated knockdown of the endogenous IL-13Ra1 subunit verified that this signaling activity was mediated by the type II receptor pathway (FIG. 7). Ectopically Stat6 is functional.
To test whether IL-4 signaling depends on compounds inhibiting Rac/Pak dependent endocytosis, HEK293T cells were transfected with a plasmid encoding human Stat6. Following transfection, cells were grown overnight, treated with inhibitors and/or ligands, lysed, proteins separated electrophoretically under denaturing conditions, and phosphorylation of Stat6 detected by quantitative immunoblotting (Antibodies from Santa Cruz, anti-STAT6 (M-20) #sc-981 and anti-phospho-STAT6 (py641.18, #sc-136019; FIG. 9).
If not indicated otherwise, human recombinant IL-4 (Invitrogen, #PHC0045) was used at 3 ng/ml, and human recombinant IL-13 (Cell Signaling, #8905) was used at 10 ng/ml.
If not indicated otherwise, the dynamin inhibitor Dynasore (Sigma Aldrich, #D7693) was used at 320 μmol/l, the Rac1 inhibitor EHT-1864 (Sigma Aldrich, 41E-1657) at 50 μmol/l, and the PAK inhibitor IPA-3 (Sigma Aldrich, #I-2285) at 10 μmol/l.

[2] = tested on: endogenous type I signaling (IL-4R, Stat6 phosphorylation) in Jurkat T lymphocytic leukemia cell line; assay: pStat6 levels, endogenous type I IL-4 signaling in Jurkat cells; settings: 10 min pre-incubation with inhibitor plus 30 min ligand and inhibitor, chlorpromazine 2.8 μmol/l
Experimental: In a second series of experiments the inventors assayed the type I IL-4R. The pStat6 levels were determined under the following conditions: • without ligand stimulation • incubation with IL-4 ligand for 30 min • 10 min pre-incubation with inhibitor plus 30 min incubation with ligand and inhibitor • 40 min pre-incubation with inhibitor followed by removal of the inhibitor and 30 min incubation with ligand (washout).
To assay endogenous type I signaling was analyzed in the Jurkat T lymphocytic leukemia cell line (ATCC TIB 152) showing a specific sensitivity to Rac/Pak dependent endocytosis.

[3] = tested on: transferrin uptake in HEK cells expressing endogenous transferrin receptor; assay: Uptake of fluorescent transferrin (Alexa568-transferrin) by confocal fluorescence microscopy; settings: 25 μg/ml Alexa568-transferrin, compounds at working concentration (Dynasore 320 μmol/l), FIG. 14
Experimental: The inventors verified that the used compounds at the working concentration indeed blocked endocytosis by monitoring the uptake of 25 μg/ml fluorescent transferrin (Alexa568-transferrin, Invitrogen) with confocal fluorescence microscopy (FIG. 14). The experiment was performed with (untransformed) HEK-cells expressing endogenous transferrin receptor. As expected, dynamin dependent endocytosis could be blocked with Dynasore. […] As expected, inhibiting Rac1 and Pak 1/2 dependent actin polymerization by EHT-1864 and IPA-3 had no effect on transferrin uptake (FIG. 14).

[4] = tested on: loading of the signaling endosome with IL4-A647 in HEK293T transfected with IL-4Ra, IL-2Rg-eGFP and JAK3; assay: Translocation of labeled IL-4 (IL4-A647) into signaling endosomes, co-localization with IL-2Rg-eGFP
Experimental: The inventors created a fluorescently labeled IL-4 ligand (Alexa647—succinimidylester, Invitrogen)—further referred to as IL4-A647.
HEK293T were transfected with IL-4Ra, IL-2Rg-eGFP, and JAK3 as described above and cultured under standard culture conditions. The cells were incubated at 4° C. with the inhibitor (optional) and stained with 50 nmol/I IL4-A647 and washed with medium (DMEM without phenole red). The temperature release from 0° C. to 20° C. was defined as a reference point for the onset of endocytosis. Thenceforth, co-localization of eGFP with A647 was measured.
Applying the fluorescent IL-4-A647 under conditions in which endocytosis is suppressed (4° C.) allows to observe the kinetics of the translocation into the signaling endosomes. The endocytosis starts with a temperature release. FIG. 15 illustrates that in an initial state (timepoint 0 min, IL4-A647 channel) the plasma membrane of the IL-4Ra chain expressing cells is homogeneously stained. However, after several minutes, the A647 fluorescence a punctuated pattern appears in the IL4-A647 channel showing a high degree of colocalization to the GFP channel (FIG. 16). Association of the stained endosomes with the actin cortex and the plasma membrane is apparent in central confocal cross-sections through a central part of the cell (FIG. 17). […] Such a readout could therefore be used to detect IL-4 translocation inhibitors.

Row | Structure (SMILES) | Stat6 phosphorylation level [1] | IL-4 signaling (pStat6 level) [2] | transferrin uptake [3] | transport of the Alexa647-labeled ligand ([4]; 50 μmol/l EHT-1864, bottom membrane, 21 min after temperature release, FIG. 18) | uptake of the labeled ligand ([4]; 50 μmol/l EHT-1864, central cross-section, 22 min after temperature release, FIG. 19) | loading of the signaling endosome with IL4-A647 ([4]; pre-incubation with 50 μmol/l EHT-1864, for up to 20 minutes after temperature release, FIG. 18) | IL-4 signaling (pStat6 level) ([2]; listed as Chlorpromazine) | transferrin uptake ([3]; listed as Chlorpromazine)
1 | O=c1cc(CN2CCOCC2)occ1OCCCCCSc1ccnc2cc(C(F)(F)F)ccc12 (racemic) [EHT-1864, 5-(5-(7-(Trifluoromethyl)quinolin-4-ylthio)pentyloxy)-2-(morpholinomethyl)-4H-pyran-4-one] | reduced the Stat6 phosphorylation level | significantly reduced | no effect | reduced | reduced uptake | reduced significantly |  | 
2 | O=C(N/N=C/c1ccc(O)c(O)c1)c1cc2ccccc2cc1O [Dynasore] | reduced the Stat6 phosphorylation level; also recorded: prevented Stat6 phosphorylation | significantly reduced | blocked transferrin endocytosis; also recorded: inhibit transferrin uptake |  |  |  |  | 
3 | Oc1ccc2ccccc2c1SSc1c(O)ccc2ccccc12 [IPA-3, 1,1′-Dithiodi-2-naphthtol] | reduced the Stat6 phosphorylation level | significantly reduced | no effect |  |  |  |  | 
4 | CN(C)CCCN1c2ccccc2Sc2ccc(Cl)cc21 [chlorpromazine] |  | no effect; also recorded: not IL-4 signaling | blocked transferrin uptake |  |  |  | no inhibitory effect | inhibit transferrin uptake
